Experimental data taken from ChEMBL document CHEMBL3217499, “Membrane disrupting antimicrobial peptide dendrimers with multiple amino termini” (Medchemcomm, 2012).
In brackets after ≈: the same amount, converted by molar mass. Where a SMILES comes first, the peptide text is derived from it. Bridges are numbered along the chain shown (N, C = ends). Roman numbers before positions name the chains, in order. Side-chain parts run from the residue outwards. [ ]: non-standard residue; d: D form. The star is where a group is joined. LeuLys(Leu) = CC(C)C[C@H](N)C(=O)NCCCC[C@H](NC(=O)[C@@H](N)CC(C)C)C(=O)*; X2 = CC[C@H](C)[C@H](N)C(=O)NCCCC[C@H](NC(=O)[C@@H](N)[C@@H](C)CC)C(=O)*; X1 = CC(C)C[C@H](N)C(=O)NC[C@H](NC(=O)[C@@H](N)CC(C)C)C(=O)*; Dap = NC[C@H](N)C(=O)O

Tests used:
[1] = tested on: Pseudomonas aeruginosa; test: Antibacterial activity against Pseudomonas aeruginosa ATCC 27853 by broth microdilution assay; format: functional
[2] = tested on: Escherichia coli; test: Antibacterial activity against Escherichia coli DH5[alpha] after 18 to 24 hrs by broth microdilution assay; format: functional
[3] = tested on: Staphylococcus aureus; test: Antibacterial activity against Staphylococcus aureus ATCC 29213 by broth microdilution assay; format: functional
[4] = tested on: Enterococcus faecium; test: Antibacterial activity against Enterococcus faecium Van BE38-10 by broth microdilution assay; format: functional
[5] = tested on: Pseudomonas aeruginosa; test: Antibacterial activity against Pseudomonas aeruginosa PAO1 after 18 to 24 hrs by broth microdilution assay; format: functional
[6] = tested on: Enterococcus faecalis; test: Antibacterial activity against Enterococcus faecalis Van BE80-8 by broth microdilution assay; format: functional
[7] = tested on: Escherichia coli; test: Antibacterial activity against Escherichia coli ATCC 25922 by broth microdilution assay; format: functional
[8] = tested on: Enterococcus faecalis; test: Antibacterial activity against Enterococcus faecalis ATCC 29212 by broth microdilution assay; format: functional
[9] = tested on: Escherichia coli; test: Antibacterial activity against Escherichia coli DC2 by broth microdilution assay; format: functional
[10] = tested on: Pseudomonas aeruginosa; test: Antibacterial activity against Pseudomonas aeruginosa K799/WT by broth microdilution assay; format: functional
[11] = tested on: Staphylococcus aureus; test: Antibacterial activity against Staphylococcus aureus 887 by broth microdilution assay; format: functional
[12] = tested on: Bacillus subtilis; test: Antibacterial activity against Bacillus subtilis BR151 after 18 to 24 hrs by broth microdilution assay; format: functional
[13] = tested on: Pseudomonas aeruginosa; test: Antibacterial activity against Pseudomonas aeruginosa K799/61 by broth microdilution assay; format: functional
[14] = tested on: Escherichia coli; test: Antibacterial activity against Escherichia coli HB101 (PAT 266) by broth microdilution assay; format: functional
[15] = tested on: Pseudomonas aeruginosa; test: Antibacterial activity against Pseudomonas aeruginosa PAO1 HS by broth microdilution assay; format: functional
[16] = tested on: Staphylococcus epidermidis; test: Antibacterial activity against Staphylococcus epidermidis J147 by broth microdilution assay; format: functional
[17] = tested on: Staphylococcus aureus; test: Antibacterial activity against methicillin-resistant Staphylococcus aureus 42080 by broth microdilution assay; format: functional
[18] = tested on: Staphylococcus aureus; test: Antibacterial activity against Staphylococcus aureus ATCC 25923 by broth microdilution assay; format: functional
[19] = tested on: Enterococcus faecium; test: Antibacterial activity against Enterococcus faecium ATCC 19434 by broth microdilution assay; format: functional
[20] = tested on: Pseudomonas aeruginosa; test: Antibacterial activity against Pseudomonas aeruginosa 8S/H by broth microdilution assay; format: functional
[21] = Hemolytic activity in human RBC after 4 hrs; format: ADME, cell-based; settings: erythrocyte
[22] = tested on: Staphylococcus epidermidis; test: Antibacterial activity against Staphylococcus epidermidis ATCC 14990 by broth microdilution assay; format: functional

Structure (SMILES) | MIC [1] [µg/mL] | MIC [2] [µg/mL] | MIC [3] [µg/mL] | MIC [5] [µg/mL] | MIC [6] [µg/mL] | MIC [7] [µg/mL] | MIC [8] [µg/mL] | MIC [10] [µg/mL] | MIC [12] [µg/mL] | MIC [13] [µg/mL] | MIC [15] [µg/mL] | MIC [17] [µg/mL] | MIC [20] [µg/mL] | MHC [21] [µg/mL] | also measured
CC(C)C[C@H](NC(=O)[C@H](CNC(=O)[C@@H](N)CC(C)C)NC(=O)[C@@H](N)CC(C)C)C(=O)NC[C@H](NC(=O)[C@H](CC(C)C)NC(=O)[C@H](CNC(=O)[C@@H](N)CC(C)C)NC(=O)[C@@H](N)CC(C)C)C(=O)N[C@@H](Cc1ccccc1)C(=O)NC[C@H](NC(=O)[C@H](Cc1ccccc1)NC(=O)[C@H](CNC(=O)[C@H](CC(C)C)NC(=O)[C@H](CNC(=O)[C@@H](N)CC(C)C)NC(=O)[C@@H](N)CC(C)C)NC(=O)[C@H](CC(C)C)NC(=O)[C@H](CNC(=O)[C@@H](N)CC(C)C)NC(=O)[C@@H](N)CC(C)C)C(=O)N[C@@H](CCCCN)C(N)=O (I: H-L[Dap](Leu)L[Dap]([Leu-X1])F[Dap]K-NH2 / II: H-L[Dap](Leu)L[Dap]([Leu-X1])F; amide I:6-II:C) | > 32 | 3.9 (≈ 1.62 µM) | > 32 | 18 (≈ 7.5 µM) | > 32 | > 32 | > 32 | > 32 | 2.9 (≈ 1.21 µM) | > 32 | > 32 | > 32 | > 32 | > 2000 | MIC [4]: > 32 µg/mL; MIC [9]: 32 µg/mL (≈ 13.3 µM); MIC [11]: 32 µg/mL (≈ 13.3 µM); MIC [14]: 32 µg/mL (≈ 13.3 µM); MIC [16]: 24 µg/mL (≈ 10 µM); MIC [18]: ≥ 32 µg/mL; MIC [19]: > 32 µg/mL; MIC [22]: 24 µg/mL (≈ 10 µM)
CC[C@H](C)[C@H](N)C(=O)NCCCC[C@H](NC(=O)[C@@H](N)[C@@H](C)CC)C(=O)N[C@@H](Cc1ccccc1)C(=O)NCCCC[C@H](NC(=O)[C@H](Cc1ccccc1)NC(=O)[C@H](CCCCNC(=O)[C@@H](N)[C@@H](C)CC)NC(=O)[C@@H](N)[C@@H](C)CC)C(=O)N1CCC[C@H]1C(=O)NCCCC[C@H](NC(=O)[C@@H]1CCCN1C(=O)[C@H](CCCCNC(=O)[C@H](Cc1ccccc1)NC(=O)[C@H](CCCCNC(=O)[C@@H](N)[C@@H](C)CC)NC(=O)[C@@H](N)[C@@H](C)CC)NC(=O)[C@H](Cc1ccccc1)NC(=O)[C@H](CCCCNC(=O)[C@@H](N)[C@@H](C)CC)NC(=O)[C@@H](N)[C@@H](C)CC)C(=O)N[C@@H](CCCCN)C(N)=O (I: H-IK(Ile)FK([Phe-X2])PKK-NH2 / II: H-IK(Ile)FK([Phe-X2])P; amide I:6-II:C) | > 32 | 18 (≈ 6.59 µM) | > 32 | 61 (≈ 22.3 µM) | > 32 | > 32 | > 32 | > 32 | 2.5 (≈ 0.916 µM) | > 32 | > 32 | > 32 | > 32 | > 10000 | 
CC(C)C[C@H](N)C(=O)NCCCC[C@H](NC(=O)[C@@H](N)CC(C)C)C(=O)N[C@@H](CCC(N)=O)C(=O)NCCCC[C@H](NC(=O)[C@H](CCC(N)=O)NC(=O)[C@H](CCCCNC(=O)[C@@H](N)CC(C)C)NC(=O)[C@@H](N)CC(C)C)C(=O)N[C@@H](Cc1ccccc1)C(=O)NCCCC[C@H](NC(=O)[C@H](Cc1ccccc1)NC(=O)[C@H](CCCCNC(=O)[C@H](CCC(N)=O)NC(=O)[C@H](CCCCNC(=O)[C@@H](N)CC(C)C)NC(=O)[C@@H](N)CC(C)C)NC(=O)[C@H](CCC(N)=O)NC(=O)[C@H](CCCCNC(=O)[C@@H](N)CC(C)C)NC(=O)[C@@H](N)CC(C)C)C(=O)N[C@@H](CCCCN)C(N)=O (I: H-LK(Leu)QK([Gln-LeuLys(Leu)])FKK-NH2 / II: H-LK(Leu)QK([Gln-LeuLys(Leu)])F; amide I:6-II:C) | > 32 | > 100 | > 32 | > 100 | > 32 | > 32 | > 32 | > 32 | > 100 | > 32 | > 32 | > 32 | > 32 | 250 | 
